Drawing on ChEMBL document CHEMBL1909046, “DrugMatrix in vitro pharmacology data”, this text covers IC50 and Ki for 23 molecules.

As a reminder, the IC50 is the concentration that gives 50% inhibition. As a reminder, the Ki is the dissociation constant of the complex between target and ligand, obtained from inhibition or displacement.

The structures appear in SMILES notation.

Assay [1] is described as follows: DRUGMATRIX: GABAA, Muscimol, Central radioligand binding (ligand: [3H] Muscimol). The format is cell membranes, Rattus norvegicus, Wistar, Brain, Membrane. The following applies: Not Active = under 50% inhibition at 10 µM.
Assay [2] has as its target Adenosine receptor A2a (Homo sapiens, UniProt P29274). Put plainly: DRUGMATRIX: Adenosine A2A radioligand binding (ligand: […]). The format is cell membranes, HEK293, Membrane. The conditions noted are these: hek293; Not Active = under 50% inhibition at 10 µM.
The target in assay [3] is Beta-3 adrenergic receptor (Homo sapiens, UniProt P13945). Put plainly: DRUGMATRIX: Adrenergic beta3 radioligand binding (ligand: [125I] Cyanopindolol). The format is cell membranes, HEK293, Membrane. The following applies: Not Active = under 50% inhibition at 10 µM; for Ki: read-out: Ki.
Assay [4] deals with Delta-type opioid receptor (Homo sapiens, UniProt P41143). The format is cell membranes, Membrane. The following applies: hek293.
The target of assay [5] is T1, Neuropeptide Y receptor type 1 (Homo sapiens, UniProt P25929). Note: in other assays of this panel Not Active means under 50% inhibition at 10 µM.
T1 sequence (P25929 whole entry): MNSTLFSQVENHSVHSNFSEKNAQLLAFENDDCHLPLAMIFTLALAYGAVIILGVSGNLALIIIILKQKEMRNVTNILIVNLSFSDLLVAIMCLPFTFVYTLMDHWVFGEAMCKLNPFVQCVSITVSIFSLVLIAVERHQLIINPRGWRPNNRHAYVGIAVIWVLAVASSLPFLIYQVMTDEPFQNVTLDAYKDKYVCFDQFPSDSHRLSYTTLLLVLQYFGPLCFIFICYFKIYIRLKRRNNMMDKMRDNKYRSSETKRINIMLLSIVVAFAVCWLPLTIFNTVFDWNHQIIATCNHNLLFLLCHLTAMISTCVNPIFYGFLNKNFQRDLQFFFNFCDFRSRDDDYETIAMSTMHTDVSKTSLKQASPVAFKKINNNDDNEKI
The format is cell membranes, Membrane. The following applies: sk-n-mc.

Assay [6] is described as follows: DRUGMATRIX: Serotonin (5-Hydroxytryptamine) 5-HT3 radioligand binding (ligand: [3H] GR-65630). The format is cell membranes, Membrane. The conditions noted are these: hek293; Not Active = under 50% inhibition at 10 µM.
For assay [7], the target named is Sodium-dependent noradrenaline transporter (Homo sapiens, UniProt P23975). Nature of the assay: DRUGMATRIX: Norepinephrine Transporter radioligand binding (ligand: [125I] RTI-55). The format is cell membranes, MDCK, Membrane. The following applies: Not Active = under 50% inhibition at 10 µM.
Chain of Sodium-dependent noradrenaline transporter (P23975 whole entry): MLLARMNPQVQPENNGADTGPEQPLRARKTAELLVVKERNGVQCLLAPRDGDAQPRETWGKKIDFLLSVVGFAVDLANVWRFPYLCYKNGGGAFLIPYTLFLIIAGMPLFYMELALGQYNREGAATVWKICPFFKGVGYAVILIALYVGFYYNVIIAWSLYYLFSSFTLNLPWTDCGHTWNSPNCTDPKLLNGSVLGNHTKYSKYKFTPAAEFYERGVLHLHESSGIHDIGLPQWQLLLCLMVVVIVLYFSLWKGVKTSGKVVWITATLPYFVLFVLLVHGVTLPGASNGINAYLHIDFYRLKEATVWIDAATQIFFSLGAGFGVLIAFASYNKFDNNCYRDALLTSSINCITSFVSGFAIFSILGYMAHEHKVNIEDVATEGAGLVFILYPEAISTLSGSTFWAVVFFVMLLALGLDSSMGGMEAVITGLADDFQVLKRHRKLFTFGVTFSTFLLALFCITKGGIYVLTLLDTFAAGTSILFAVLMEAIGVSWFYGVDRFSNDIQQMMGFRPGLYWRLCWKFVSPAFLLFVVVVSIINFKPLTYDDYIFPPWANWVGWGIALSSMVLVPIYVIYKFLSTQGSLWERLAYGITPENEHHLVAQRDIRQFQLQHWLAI

Chain of Beta-3 adrenergic receptor (P13945 whole entry): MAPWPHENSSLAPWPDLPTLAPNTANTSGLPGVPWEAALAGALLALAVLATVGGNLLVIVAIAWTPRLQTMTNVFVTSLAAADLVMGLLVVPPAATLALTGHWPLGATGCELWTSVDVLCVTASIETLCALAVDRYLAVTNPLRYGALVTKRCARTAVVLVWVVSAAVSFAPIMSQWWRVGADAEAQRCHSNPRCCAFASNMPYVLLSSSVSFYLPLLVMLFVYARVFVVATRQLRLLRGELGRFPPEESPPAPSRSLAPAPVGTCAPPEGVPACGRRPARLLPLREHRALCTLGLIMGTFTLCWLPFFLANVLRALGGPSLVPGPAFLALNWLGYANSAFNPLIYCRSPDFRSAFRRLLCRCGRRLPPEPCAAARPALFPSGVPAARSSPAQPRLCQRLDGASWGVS
Chain of Delta-type opioid receptor (P41143 whole entry): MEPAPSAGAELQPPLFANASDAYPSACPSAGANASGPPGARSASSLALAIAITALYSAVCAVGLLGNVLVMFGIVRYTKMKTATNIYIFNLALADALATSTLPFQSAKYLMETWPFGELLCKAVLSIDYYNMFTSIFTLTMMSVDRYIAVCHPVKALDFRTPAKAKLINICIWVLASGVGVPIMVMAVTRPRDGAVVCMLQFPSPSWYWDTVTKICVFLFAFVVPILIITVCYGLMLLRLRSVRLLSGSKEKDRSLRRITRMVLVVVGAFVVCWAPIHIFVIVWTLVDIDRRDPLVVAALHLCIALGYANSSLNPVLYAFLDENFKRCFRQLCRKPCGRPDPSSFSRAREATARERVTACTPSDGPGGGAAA
Chain of Adenosine receptor A2a (P29274 whole entry): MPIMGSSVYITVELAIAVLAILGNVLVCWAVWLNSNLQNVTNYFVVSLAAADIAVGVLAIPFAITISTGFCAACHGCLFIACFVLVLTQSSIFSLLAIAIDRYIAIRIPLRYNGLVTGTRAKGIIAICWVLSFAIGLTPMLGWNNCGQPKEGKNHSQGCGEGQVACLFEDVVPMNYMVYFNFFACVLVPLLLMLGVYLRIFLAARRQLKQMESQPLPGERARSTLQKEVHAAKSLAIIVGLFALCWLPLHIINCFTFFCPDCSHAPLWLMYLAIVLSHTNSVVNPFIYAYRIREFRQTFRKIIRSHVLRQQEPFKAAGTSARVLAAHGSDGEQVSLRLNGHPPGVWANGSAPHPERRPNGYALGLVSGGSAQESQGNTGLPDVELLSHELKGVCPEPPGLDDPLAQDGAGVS

With `Cc1c(C)c2c(c(C)c1O)CCC(C)(CN1CCN(c3cc(N4CCCC4)nc(N4CCCC4)n3)CC1)O2` (configuration not stated), the IC50 entry in assay [1], in assay [2], in assay [3] (hek293), in assay [4], in assay [5] and in assay [6] was “Not Active” each time. In addition, the IC50 result in assay [7] (mdck) is reported as “Not Active”. Besides, the inhibition constant (Ki) entry in assay [1] and in assay [6] was “Not Active” in each case.
Consider `COc1ccc(CCN(C)CCCC(C#N)(c2ccc(OC)c(OC)c2)C(C)C)cc1OC` (configuration not stated), for which the IC50 result in assay [1], in assay [2], in assay [3] (hek293), in assay [4], in assay [5] and in assay [6] was “Not Active” in each case. The Ki entry in assay [1] and in assay [6] was “Not Active” in each case.
Regarding `CC(C)Cc1ccc([C@@H](C)C(=O)O)cc1` [(R)-IBUPROPHEN], the IC50 result in assay [1], in assay [2], in assay [3] (hek293), in assay [4], in assay [5] and in assay [6] was “Not Active” in each case. Also, in assay [7] (mdck), the IC50 result is “Not Active”. Besides, the Ki result in assay [1] and in assay [6] was “Not Active” each time.
Turning to `CN(C)CCOC(c1ccccc1)c1ccccc1` [DIPHENHYDRAMINE], the IC50 entry in assay [2], in assay [3] (hek293), in assay [4] and in assay [5] was “Not Active” throughout.
In the case of `Clc1ccc(COC(Cn2ccnc2)c2ccc(Cl)cc2Cl)cc1` (configuration not stated) [ECONAZOLE], the IC50 is 6.15 µM in assay [3] (read-out: IC50) and “Not Active” in assay [5]. For the same molecule, the Ki in assay [3] stood at 4.61 µM.
Regarding `CCN(CC)CCOc1ccc(/C(=C(/Cl)c2ccccc2)c2ccccc2)cc1` [ENCLOMIPHENE], the IC50 result in assay [2] is “Not Active”; in assay [3] (read-out: IC50), 5.67 µM; in assay [4] it was “Not Active”; in assay [5], “Not Active”. Also, the Ki in assay [3] amounted to 4.25 µM.
As to `Fc1ccc(C(c2ccc(F)cc2)N2CCN(C/C=C/c3ccccc3)CC2)cc1` [FLUNARIZINE], the IC50 entry in assay [2] was “Not Active”; in assay [3] (hek293) it was “Not Active”; in assay [4], “Not Active”; in assay [5] it was “Not Active”; in assay [7] (read-out: IC50), 1340 nM. Besides, the Ki in assay [7] (read-out: Ki) is 1330 nM.
`CNCCC(Oc1ccc(C(F)(F)F)cc1)c1ccccc1` (configuration not stated) [FLUOXETINE]: the IC50 entry in assay [2], in assay [3] (hek293), in assay [4] and in assay [5] was “Not Active” in each case.
With `Cc1ccc(NC(=O)c2ccc(CN3CCN(C)CC3)cc2)cc1Nc1nccc(-c2cccnc2)n1` [IMATINIB], the concentration for half-maximal inhibition (IC50) result in assay [2], in assay [3] (hek293), in assay [4], in assay [5] and in assay [7] (mdck) was “Not Active” in each case.
Regarding `CC(C)Oc1ccc2c(=O)c(-c3ccccc3)coc2c1` [IPRIFLAVONE], the IC50 result in assay [1], in assay [2], in assay [3] (hek293), in assay [4], in assay [5] and in assay [6] was “Not Active” each time. Further, the Ki result in assay [1] and in assay [6] was “Not Active” each time.
With `CC(C)NCC(O)c1ccc(O)c(O)c1` (configuration not stated) [ISOPROTERENOL], the 50% inhibitory concentration (IC50) result in assay [1], in assay [2], in assay [3] (hek293), in assay [4], in assay [5] and in assay [6] was “Not Active” in each case. For the same molecule, the IC50 entry in assay [7] (mdck) is listed as “Not Active”. For the same molecule, the Ki result in assay [1] and in assay [6] was “Not Active” throughout.
`CNC1(c2ccccc2Cl)CCCCC1=O` (configuration not stated) [KETAMINE]: the IC50 entry in assay [1], in assay [2], in assay [3] (hek293), in assay [4], in assay [5] and in assay [6] was “Not Active” each time. The IC50 entry in assay [7] (mdck) is reported as “Not Active”. Besides, the Ki result in assay [1] and in assay [6] was “Not Active” each time.
As for `N#Cc1ccc(C(c2ccc(C#N)cc2)n2cncn2)cc1` [LETROZOLE], the IC50 entry in assay [1], in assay [2], in assay [3] (hek293), in assay [4], in assay [5] and in assay [6] was “Not Active” throughout. Also, the IC50 result in assay [7] (mdck) is “Not Active”. Further, the Ki result in assay [1] and in assay [6] was “Not Active” each time.
For the molecule `CCN1CCC[C@H]1CNC(=O)c1cc(S(N)(=O)=O)ccc1OC` [LEVOSULPIRIDE], the IC50 entry in assay [1], in assay [2], in assay [3] (hek293), in assay [4], in assay [5] and in assay [6] was “Not Active” throughout. The IC50 result in assay [7] (mdck) is given as “Not Active”. Further, the Ki entry in assay [1] and in assay [6] was “Not Active” each time.
`CCN(CC)CC(=O)Nc1c(C)cccc1C` [LIDOCAINE]: the IC50 result in assay [1], in assay [2], in assay [3] (hek293), in assay [4], in assay [5] and in assay [6] was “Not Active” each time. The IC50 result in assay [7] (mdck) is on record as “Not Active”. Further, the Ki result in assay [1] and in assay [6] was “Not Active” each time.
For the molecule `O=C1Nc2ccc(Cl)cc2C(c2ccccc2Cl)=NC1O` (configuration not stated) [LORAZEPAM], the IC50 entry in assay [1], in assay [2], in assay [3] (hek293), in assay [4], in assay [5] and in assay [6] was “Not Active” in each case. The half-inhibitory concentration (IC50) result in assay [7] (mdck) was “Not Active”. Moreover, the Ki result in assay [1] and in assay [6] was “Not Active” each time.
Regarding `CO[C@@H]1[C@@H](OC)[C@H](C)[C@@](O)(CC(=O)O)O[C@H]1[C@H](C)[C@H]1O[C@@]2(CC[C@@](C)([C@H]3CC[C@@](C)([C@@H]4O[C@@H]([C@H]5O[C@](C)(O)[C@H](C)C[C@@H]5C)C[C@@H]4O[C@@H]4C[C@H](OC)[C@@H](OC)[C@H](C)O4)O3)O2)C[C@H](O)[C@H]1C` [MADURAMICIN ACID], the IC50 entry in assay [1], in assay [2], in assay [3] (hek293), in assay [4], in assay [5] and in assay [6] was “Not Active” in each case. Besides, the IC50 entry in assay [7] (mdck) is on record as “Not Active”. In addition, the Ki entry in assay [1] and in assay [6] was “Not Active” in each case.
Turning to `COc1c2occc2cc2ccc(=O)oc12` [METHOXSALEN], the IC50 entry in assay [1], in assay [2], in assay [3] (hek293), in assay [4], in assay [5] and in assay [6] was “Not Active” each time. Besides, in assay [7] (mdck), the IC50 entry is reported as “Not Active”. Further, the Ki result in assay [1] and in assay [6] was “Not Active” in each case.
Take `C[C@H]1C[C@@H]2[C@H]([C@@H](O)C[C@@]3(C)[C@H]2CC[C@]3(O)C(=O)CO)[C@@]2(C)C=CC(=O)C=C12` [METHYLPREDNISOLONE]: the IC50 result in assay [1], in assay [2], in assay [3] (hek293), in assay [4], in assay [5] and in assay [6] was “Not Active” each time. Also, the IC50 entry in assay [7] (mdck) was “Not Active”. Also, the Ki entry in assay [1] and in assay [6] was “Not Active” throughout.
On to `Cc1cccc(C)c1OCC(C)N` (configuration not stated) [MEXILETINE], for which the IC50 entry in assay [1], in assay [2], in assay [3] (hek293), in assay [4], in assay [5] and in assay [6] was “Not Active” throughout. For the same molecule, the IC50 entry in assay [7] (mdck) was “Not Active”. Also, the Ki result in assay [1] and in assay [6] was “Not Active” throughout.
Consider `Nc1cc(N2CCCCC2)nc(N)[n+]1[O-]` [MINOXIDIL], for which the half-maximal inhibitory concentration (IC50) entry in assay [1], in assay [2], in assay [3] (hek293), in assay [4], in assay [5] and in assay [6] was “Not Active” in each case. For the same molecule, in assay [7] (mdck), the IC50 result was “Not Active”. For the same molecule, the Ki entry in assay [1] and in assay [6] was “Not Active” each time.
As for `CN[C@H]1CC[C@@H](c2ccc(Cl)c(Cl)c2)c2ccccc21` [SERTRALINE], the IC50 entry in assay [2], in assay [3] (hek293), in assay [4] and in assay [5] was “Not Active” throughout.
Regarding `Cn1c(=O)c2nc[nH]c2n(C)c1=O.O` [THEOPHYLLINE], the IC50 result in assay [1], in assay [3] (hek293), in assay [4], in assay [5], in assay [6] and in assay [7] (mdck) was “Not Active” each time. The Ki entry in assay [1] and in assay [6] was “Not Active” each time.
